Measurements as given in patent publication US10781181B2, “N-((het) arylmethyl)-heteroaryl-carboxamides compounds as plasma kallikrein inhibitors” (Kalvista Pharmaceuticals Limited, priority 2014, dated 2020).

Columns and labels:
Assay type in all cases: biochemical
Human FXIa = Human FXIa (Homo sapiens (Human), UniProt P03951); test: Determination of the % inhibition for FXIa; details: 40 μM of the test compound, human FXIa, 25° C.; read-out: % Inhibition @ 40 μM (human FXIa)
Method: Determination of the % Inhibition for FXIa
Human FXIa (Enzyme Research Laboratories) was incubated at 25° C. with the fluorogenic substrate Z-Gly-Pro-Arg-AFC and 40 μM of the test compound. Residual enzyme activity (initial rate of reaction) was determined by measuring the change in […].

Human KLK1 = Human KLK1 (Homo sapiens (Human), UniProt P06870); test: Determination of the IC50 for KLK1; details: human KLK1, 25° C., substrate H-DVal-Leu-Arg-AFC
Method: Determination of the IC50 for KLK1
(§1) Human KLK1 (Callbiochem) was incubated at 25° C. with the fluorogenic substrate H-DVal-Leu-Arg-AFC and various concentrations of the test compound. Residual enzyme activity (initial rate of reaction) was determined by measuring the change in […] at 410 nm and the IC50 value for the test compound was determined.

Human plasma kallikrein = Human plasma kallikrein (Homo sapiens (Human), UniProt P03952); test: Determination of the IC50 for plasma kallikrein; details: read-out: IC50 (human PKal)
Method: Determination of the IC50 for Plasma Kallikrein
as §1, with “plasma kallikrein (Protogen)” for “KLK1 (Callbiochem)”, “H-DPro-Phe-Arg-AFC” for “H-DVal-Leu-Arg-AFC”

Chain of Human plasma kallikrein (P03952 391-638): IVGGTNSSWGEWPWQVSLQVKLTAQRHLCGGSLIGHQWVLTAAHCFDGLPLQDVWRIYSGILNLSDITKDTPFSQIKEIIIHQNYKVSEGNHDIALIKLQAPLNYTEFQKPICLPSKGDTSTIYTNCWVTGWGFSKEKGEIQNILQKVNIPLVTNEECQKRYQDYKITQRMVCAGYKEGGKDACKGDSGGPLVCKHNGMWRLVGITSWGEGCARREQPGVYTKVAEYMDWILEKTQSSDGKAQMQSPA
Chain of Human plasma kallikrein (P03952 20-390 partner): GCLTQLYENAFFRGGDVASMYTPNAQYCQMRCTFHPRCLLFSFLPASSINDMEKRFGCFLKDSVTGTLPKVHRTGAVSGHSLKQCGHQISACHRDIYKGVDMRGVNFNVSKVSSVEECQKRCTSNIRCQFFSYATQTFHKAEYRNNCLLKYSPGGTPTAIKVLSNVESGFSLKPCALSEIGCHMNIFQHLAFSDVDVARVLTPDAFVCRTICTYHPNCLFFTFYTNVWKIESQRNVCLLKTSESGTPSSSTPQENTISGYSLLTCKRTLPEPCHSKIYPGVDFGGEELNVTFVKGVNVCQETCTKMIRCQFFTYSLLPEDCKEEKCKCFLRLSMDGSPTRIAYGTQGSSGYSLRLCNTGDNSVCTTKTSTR
Chain of Human KLK1 (P06870 25-262): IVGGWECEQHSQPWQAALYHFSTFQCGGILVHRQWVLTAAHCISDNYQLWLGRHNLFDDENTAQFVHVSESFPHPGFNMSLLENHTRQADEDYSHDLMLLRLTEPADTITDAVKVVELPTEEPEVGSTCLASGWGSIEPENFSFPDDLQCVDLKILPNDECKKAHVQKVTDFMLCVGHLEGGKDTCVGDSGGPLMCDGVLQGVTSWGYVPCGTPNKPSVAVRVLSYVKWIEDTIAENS
Chain of Human FXIa (P03951 388-625 limits assumed): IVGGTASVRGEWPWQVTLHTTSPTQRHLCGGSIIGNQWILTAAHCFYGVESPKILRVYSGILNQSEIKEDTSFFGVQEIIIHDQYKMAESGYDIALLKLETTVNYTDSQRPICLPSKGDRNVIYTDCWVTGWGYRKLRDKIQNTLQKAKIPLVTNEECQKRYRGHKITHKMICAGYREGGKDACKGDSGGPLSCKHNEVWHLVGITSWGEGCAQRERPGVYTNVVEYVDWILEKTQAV
Chain of Human FXIa (P03951 19-387 partner limits assumed): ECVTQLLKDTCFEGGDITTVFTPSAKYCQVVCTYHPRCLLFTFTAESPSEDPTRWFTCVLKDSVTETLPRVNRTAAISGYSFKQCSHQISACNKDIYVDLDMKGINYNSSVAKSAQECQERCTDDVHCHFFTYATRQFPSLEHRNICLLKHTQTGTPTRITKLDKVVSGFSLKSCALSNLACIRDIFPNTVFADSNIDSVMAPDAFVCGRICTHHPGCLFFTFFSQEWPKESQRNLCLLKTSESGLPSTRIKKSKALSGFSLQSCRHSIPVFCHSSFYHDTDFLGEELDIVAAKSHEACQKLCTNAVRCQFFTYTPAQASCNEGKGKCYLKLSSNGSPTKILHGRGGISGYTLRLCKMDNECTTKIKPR

inhibition at 40 µM (Human FXIa)	IC50 (Human KLK1)	IC50 (Human plasma kallikrein)	SMILES
0%	> 10 µM	5.53 µM	Nc1nn(Cc2ccc(Cn3ccccc3=O)cc2)cc1C(=O)NCC(=O)Nc1ccccc1Cl [Example 3, 2-{[3-amino-1-({4-[(2-oxopyridin-1-yl)methyl]phenyl}methyl)pyrazol-4-yl]formamido}-N-(2-chlorophenyl)acetamide]
2%	> 40 µM	> 10 µM	Cn1ncc2cc(Cn3cc(C(=O)NCCOc4cccc(Cl)c4)c(N)n3)ccc21 [Example 93, 3-amino-N-[2-(3-chlorophenoxy)ethyl]-1-[(1-methylindazol-5-yl)methyl]pyrazole-4-carboxamide]
–	> 10 µM	> 10 µM	Nc1nn(Cc2ccc(Cn3ccccc3=O)cc2)cc1C(=O)NCC(=O)Nc1ccc(Cl)cc1 [Example 4, 2-{[3-amino-1-({4-[(2-oxopyridin-1-yl)methyl]phenyl}methyl)pyrazol-4-yl]formamido}-N-(4-chlorophenyl)acetamide]
–	> 40 µM	> 10 µM	Nc1nn(Cc2ccc(C(=O)N3CCCCC3)cc2)cc1C(=O)NCCOc1cccc(Cl)c1 [Example 60, 3-amino-N-[2-(3-chlorophenoxy)ethyl]-1-({4-[(piperidin-1-yl)carbonyl]phenyl}methyl)pyrazole-4-carboxamide]
–	> 40 µM	3.14 µM	Nc1nn(Cc2ccnc(N3CCCC3=O)c2)cc1C(=O)NCCOc1cccc(Cl)c1 [Example 94, 3-amino-N-[2-(3-chlorophenoxy)ethyl]-1-{[2-(2-oxopyrrolidin-1-yl)pyridin-4-yl]methyl}pyrazole-4-carboxamide]
–	> 40 µM	0.0062 µM	Nc1nn(Cc2ccc(Cn3cc(F)ccc3=O)cc2)cc1C(=O)NCCOc1cccc(Cl)c1 [Example 100, 3-amino-N-[2-(3-chlorophenoxy)ethyl]-1-({4-[(5-fluoro-2-oxopyridin-1-yl)methyl]phenyl}methyl)pyrazole-4-carboxamide]
–	> 40 µM	0.0163 µM	Cc1nn(Cc2ccc(Cn3ccccc3=O)cc2)cc1C(=O)NCCOc1cccc(Cl)c1 [Example 39, N-[2-(3-chlorophenoxy)ethyl]-3-methyl-1-({4-[(2-oxopyridin-1-yl)methyl]phenyl}methyl)pyrazole-4-carboxamide]
–	> 40 µM	0.0076 µM	Nc1nn(Cc2ccc(Cn3ccccc3=O)cc2F)cc1C(=O)NCCOc1cccc(Cl)c1 [Example 101, 3-amino-N-[2-(3-chlorophenoxy)ethyl]-1-({2-fluoro-4-[(2-oxopyridin-1-yl)methyl]phenyl}methyl)pyrazole-4-carboxamide]
–	> 40 µM	1.9 µM	Cc1nc2cc(Cn3cc(C(=O)NCCOc4cccc(Cl)c4)c(N)n3)ccc2n1C [Example 95, 3-amino-N-[2-(3-chlorophenoxy)ethyl]-1-[(1,2-dimethyl-1,3-benzodiazol-5-yl)methyl]pyrazole-4-carboxamide]
–	> 40 µM	> 10 µM	Cc1nn(Cc2ccc(Cn3ccccc3=O)cc2)c(C)c1C(=O)NCCOc1cccc(Cl)c1 [Example 103, N-[2-(3-chlorophenoxy)ethyl]-3,5-dimethyl-1-({4-[(2-oxopyridin-1-yl)methyl]phenyl}methyl)pyrazole-4-carboxamide]

Continued, compound first:

SMILES	inhibition at 40 µM (Human FXIa)	IC50 (Human KLK1)	IC50 (Human plasma kallikrein)
COCc1nn(Cc2ccc(Cn3ccc(C)cc3=O)cc2)cc1C(=O)NCCOc1cccc(Cl)c1 [Example 104, N-[2-(3-chlorophenoxy)ethyl]-3-(methoxymethyl)-1-({4-[(4-methyl-2-oxopyridin-1-yl)methyl]phenyl}methyl)pyrazole-4-carboxamide]	–	> 40 µM	0.413 µM
Nc1nn(Cc2ccc(N3CCCC3=O)nc2)cc1C(=O)NCCOc1cccc(Cl)c1 [Example 96, 3-amino-N-[2-(3-chlorophenoxy)ethyl]-1-{[6-(2-oxopyrrolidin-1-yl)pyridin-3-yl]methyl}pyrazole-4-carboxamide]	–	> 40 µM	2.23 µM
Cc1nc(C(=O)NCCOc2cccc(Cl)c2)cn1Cc1ccc(Cn2ccccc2=O)cc1 [Example 43, N-[2-(3-chlorophenoxy)ethyl]-2-methyl-1-({4-[(2-oxopyridin-1-yl)methyl]phenyl}methyl)imidazole-4-carboxamide]	–	> 10 µM	0.077 µM
Nc1nn(Cc2ccc(Cn3c(F)cccc3=O)cc2)cc1C(=O)NCCOc1cccc(Cl)c1 [Example 99, 3-amino-N-[2-(3-chlorophenoxy)ethyl]-1-({4-[(2-fluoro-6-oxopyridin-1-yl)methyl]phenyl}methyl)pyrazole-4-carboxamide]	–	> 40 µM	2.07 µM
Nc1nn(Cc2ccc(-c3cccnc3)nc2)cc1C(=O)NCCOc1cccc(Cl)c1 [Example 97, 3-amino-N-[2-(3-chlorophenoxy)ethyl]-1-{[6-(pyridin-3-yl)pyridin-3-yl]methyl}pyrazole-4-carboxamide]	–	> 40 µM	1.13 µM
Nc1nn(Cc2ccc(Cn3ccccc3=O)cn2)cc1C(=O)NCCOc1cccc(Cl)c1 [Example 102, 3-amino-N-[2-(3-chlorophenoxy)ethyl]-1-({5-[(2-oxopyridin-1-yl)methyl]pyridin-2-yl}methyl)pyrazole-4-carboxamide]	–	> 40 µM	0.0721 µM
CC(CNC(=O)c1cn(Cc2ccc(Cn3ccccc3=O)cc2)nc1N)Oc1cccc(Cl)c1 (racemic) [Example 118, 3-amino-N-[(2R/S)-2-(3-chlorophenoxy)propyl]-1-({4-[(2-oxopyridin-1-yl)methyl]phenyl}methyl)pyrazole-4-carboxamide]	–	> 40 µM	0.0133 µM
COCc1nn(Cc2ccc(Cn3ccccc3=O)cc2)cc1C(=O)NCCOc1cc(Cl)cc(OC)c1 [Example 11, N-[2-(3-chloro-5-methoxyphenoxy)ethyl]-3-(methoxymethyl)-1-({4-[(2-oxopyridin-1-yl)methyl]phenyl}methyl)pyrazole-4-carboxamide]	–	> 10 µM	> 10 µM
COCc1nn(Cc2ccc(Cn3ccccc3=O)cc2)cc1C(=O)NCCOc1cc(Cl)cnn1 [Example 46, N-{2-[(5-chloropyridazin-3-yl)oxy]ethyl}-3-(methoxymethyl)-1-({4-[(2-oxopyridin-1-yl)methyl]phenyl}methyl)pyrazole-4-carboxamide]	–	> 10 µM	> 10 µM
CN(C)C(=O)c1cccc(Cn2cc(C(=O)NCCOc3cccc(Cl)c3)c(N)n2)c1 [Example 65, 3-amino-N-[2-(3-chlorophenoxy)ethyl]-1-{[3-(dimethylcarbamoyl)phenyl]methyl}pyrazole-4-carboxamide]	–	> 40 µM	> 10 µM
CN(CC(=O)O)c1cc(Cn2cc(C(=O)NCCOc3cccc(Cl)c3)c(N)n2)ccn1 [Example 67, ({4-[(3-amino-4-{[2-(3-chlorophenoxy)ethyl]carbamoyl}pyrazol-1-yl)methyl]pyridin-2-yl}(methyl)amino)acetic acid]	–	> 40 µM	> 10 µM
Nc1nn(Cc2cccc(Cl)n2)cc1C(=O)NCCOc1cccc(Cl)c1 [Example 81, 3-amino-N-[2-(3-chlorophenoxy)ethyl]-1-[(6-chloropyridin-2-yl)methyl]pyrazole-4-carboxamide]	–	> 40 µM	> 10 µM
CN(C)C(=O)c1ccc(Cn2cc(C(=O)NCCOc3cccc(Cl)c3)c(N)n2)cc1 [Example 59, 3-amino-N-[2-(3-chlorophenoxy)ethyl]-1-{[4-(dimethylcarbamoyl)phenyl]methyl}pyrazole-4-carboxamide]	–	> 40 µM	> 10 µM
Nc1nn(Cc2cccc(C(=O)O)c2)cc1C(=O)NCCOc1cccc(Cl)c1 [Example 63, 3-[(3-amino-4-{[2-(3-chlorophenoxy)ethyl]carbamoyl}pyrazol-1-yl)methyl]benzoic acid]	–	> 40 µM	> 10 µM
Nc1c(C(=O)NCCOc2cccc(Cl)c2)cnn1Cc1ccc2[nH]ncc2c1 [Example 44, 5-amino-N-[2-(3-chlorophenoxy)ethyl]-1-(1H-indazol-5-ylmethyl)pyrazole-4-carboxamide]	–	> 40 µM	> 10 µM
N#Cc1nn(Cc2ccc(Cn3ccccc3=O)cc2)cc1C(=O)NCCOc1cccc(Cl)c1 [Example 38, N-[2-(3-chlorophenoxy)ethyl]-3-cyano-1-({4-[(2-oxopyridin-1-yl)methyl]phenyl}methyl)pyrazole-4-carboxamide]	–	> 40 µM	0.0065 µM
Nc1c(C(=O)NCCOc2cccc(Cl)c2)cnn1Cc1ccc(C(=O)N2CCCC2)cc1 [Example 45, 5-amino-N-[2-(3-chlorophenoxy)ethyl]-1-({4-[(pyrrolidin-1-yl)carbonyl]phenyl}methyl)pyrazole-4-carboxamide]	–	> 40 µM	6.25 µM
COc1cc(Cn2cc(C(=O)NCCOc3cccc(Cl)c3)c(N)n2)ccc1Cn1ccccc1=O [Example 98, 3-amino-N-[2-(3-chlorophenoxy)ethyl]-1-({3-methoxy-4-[(2-oxopyridin-1-yl)methyl]phenyl}methyl)pyrazole-4-carboxamide]	–	> 40 µM	0.0094 µM
CNC(=O)c1cccc(Cn2cc(C(=O)NCCOc3cccc(Cl)c3)c(N)n2)c1 [Example 64, 3-amino-N-[2-(3-chlorophenoxy)ethyl]-1-{[3-(methylcarbamoyl)phenyl]methyl}pyrazole-4-carboxamide]	–	> 40 µM	> 10 µM
